Data: US11530244B2, “Cyclic polypeptides for PCSK9 inhibition” (priority 2018, dated 2022)
pIC50: −log10 of the molar value. Starred links: 1 amine or outer side, 2 acyl side, 3 side chain; linkers in the order of their positions; H or OH if unused. Positions of bridges follow the written chain, without caps; N, C: chain ends. Non-standard residues stand in square brackets, D forms with d. Residues, ends and D or L forms follow the SMILES beside them. X24 = O=C(CCCCSc1c(F)c(F)c(SCCN[*:1])c(F)c1F)[*:2]; Pro(cis-4-Ph) = O=C(O)[C@@H]1C[C@H](c2ccccc2)CN1; Phe(4-COOH) = N[C@@H](Cc1ccc(C(=O)O)cc1)C(=O)O; Trp(5-F) = N[C@@H](Cc1c[nH]c2ccc(F)cc12)C(=O)O; Trp(6-F) = N[C@@H](Cc1c[nH]c2cc(F)ccc12)C(=O)O; Leu(3R-OH) = CC(C)[C@@H](O)[C@H](N)C(=O)O; X13 = O=C(CCCCc1cccc(CCCCN[*:1])c1)[*:2]; X17 = O=C(CCSCc1ccc(CSCCN[*:1])cc1)[*:2]; Pro(4S-NH2) = N[C@@H]1CN[C@H](C(=O)O)C1; X4 = O=C(CCSCc1cccc(CSCCN[*:1])c1)[*:2]; X23 = CC[C@@]1(C(=O)[*:2])CCCN1[*:1]; mXylylene = c1cc(C[*:1])cc(C[*:2])c1; AEF = NCCOc1ccc(C[C@H](N)C(=O)O)cc1; Glutaryl = O=C(CCCC(=O)[*:2])[*:1]; Val(3-OH) = CC(C)(O)[C@H](N)C(=O)O; hPhe = N[C@@H](CCc1ccccc1)C(=O)O; aThr = C[C@H](O)[C@H](N)C(=O)O; αMeP = C[C@@]1(C(=O)O)CCCN1; Ac3c = NC1(C(=O)O)CC1; Aib = CC(C)(N)C(=O)O; Mpa = O=C(O)CCS

How the values were obtained:
PCSK9 = PCSK9 (Homo sapiens (Human), UniProt Q8NBP7); assay: PCSK9 Alexa FRET Standard assay (displacement of AlexaFluor647 tagged cyclic peptide Reagent A); assay type: binding; conditions: PCSK9 Alexa FRET Standard assay, 0.5 nM PCSK9, 20 nM AF cyclic peptide Reagent A; read-out: IC50
In short: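 TR-FRET displacement: 0.5 nM biotinylated PCSK9 with 1.25 nM Strep-Eu and 20 nM AlexaFluor-tagged cyclic peptide (final) in 50 mM HEPES pH 7.4, 0.15 M NaCl, 5 mM CaCl2, 0.01% BSA, 0.01% P20, ≥2 h at room temperature. IC50 from sigmoidal fit, converted to Ki via peptide KD; falling Eu counts flagged false positives.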

[1] = target: human PCSK9 / human LDLR EGFa domain interaction (Homo sapiens (Human), UniProt Q8NBP7); assay: TR-FRET assay of inhibition of the PCSK9-LDLR protein-protein interaction; assay type: binding; conditions: TR-FRET, 20 nM human PCSK9, 20 nM human LDLR EGFa domain, 2 hours room temperature; read-out: IC50
In short: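 Inhibition of PCSK9 binding to the LDLR EGFa domain, each protein at 20 nM, detected by TR-FRET using streptavidin and anti-His donor/acceptor labels (5 nM). Two-hour room-temperature incubation in calcium-containing HEPES buffer.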

Chain of human PCSK9 / human LDLR EGFa domain interaction (Q8NBP7 153-692): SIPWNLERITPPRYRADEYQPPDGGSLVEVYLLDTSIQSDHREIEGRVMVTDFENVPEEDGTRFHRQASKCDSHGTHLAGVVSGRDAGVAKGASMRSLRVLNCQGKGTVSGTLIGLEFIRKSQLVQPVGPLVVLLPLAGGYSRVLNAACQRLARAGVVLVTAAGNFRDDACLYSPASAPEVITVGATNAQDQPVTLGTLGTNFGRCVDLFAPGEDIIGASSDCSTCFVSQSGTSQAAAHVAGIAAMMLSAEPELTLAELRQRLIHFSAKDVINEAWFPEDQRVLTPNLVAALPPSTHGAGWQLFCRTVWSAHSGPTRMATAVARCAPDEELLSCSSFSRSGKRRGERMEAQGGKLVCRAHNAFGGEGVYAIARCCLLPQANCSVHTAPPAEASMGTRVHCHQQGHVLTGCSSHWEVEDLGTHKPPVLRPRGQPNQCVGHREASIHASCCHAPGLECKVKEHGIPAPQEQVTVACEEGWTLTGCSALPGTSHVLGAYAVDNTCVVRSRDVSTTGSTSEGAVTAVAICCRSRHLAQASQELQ
Chain of human PCSK9 / human LDLR EGFa domain interaction (Q8NBP7 31-152 partner): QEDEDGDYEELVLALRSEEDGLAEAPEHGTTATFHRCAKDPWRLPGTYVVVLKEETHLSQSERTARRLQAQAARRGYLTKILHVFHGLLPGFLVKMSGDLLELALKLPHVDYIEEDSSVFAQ
Chain of PCSK9 (Q8NBP7 153-692): as the sequence (Q8NBP7 153-692) above

Structure (SMILES)	pIC50 (PCSK9)	pIC50 [1]
NCCCC[C@@H]1NC(=O)CCSCc2cccc(c2)CSC[C@@H](C(N)=O)NC(=O)[C@@H]2C[C@H](c3ccccc3)CN2C(=O)[C@H](Cc2ccc(O)cc2)NC(=O)[C@H](Cc2cnc[nH]2)NC(=O)[C@H](CC(=O)O)NC(=O)[C@H](Cc2c[nH]c3ccc(F)cc23)NC(=O)[C@H](Cc2c[nH]c3ccc(F)cc23)NC(=O)CNC1=O [Compound 329] ([Mpa]KG[Trp(5-F)][Trp(5-F)]DHY[Pro(cis-4-Ph)]C-NH2; linker 1-10 via mXylylene)	6.00 to 7.00	6.00 to 7.00
CC(=O)N[C@H]1CCCCNC(=O)c2ccc(cc2)C[C@@H](C(N)=O)NC(=O)[C@]2(C)CCCN2C(=O)[C@H](Cc2ccc(O)cc2)NC(=O)[C@H](Cc2cnc[nH]2)NC(=O)[C@H](CC(=O)O)NC(=O)[C@H](Cc2c[nH]c3cc(F)ccc23)NC(=O)[C@H](Cc2c[nH]c3ccc(F)cc23)NC(=O)CNC(=O)[C@H](C)NC1=O [Compound 312] (Ac-KAG[Trp(5-F)][Trp(6-F)]DHY[αMeP][Phe(4-COOH)]-NH2; lactam 1-10)	4.92 to 6.00	6.00 to 7.00
C[C@@]12CCCN1C(=O)[C@H](Cc1ccc(O)cc1)NC(=O)[C@H](Cc1c[nH]cn1)NC(=O)[C@H](CC(=O)O)NC(=O)[C@H](Cc1c[nH]c3ccc(F)cc13)NC(=O)[C@H](Cc1c[nH]c3ccc(F)cc13)NC(=O)CNC(=O)C1(CC1)NC(=O)CCSCc1cccc(c1)CSC[C@@H](C(N)=O)NC2=O [Compound 281] ([Mpa][Ac3c]G[Trp(5-F)][Trp(5-F)]DHY[αMeP]C-NH2; linker 1-10 via mXylylene)	6.00 to 7.00	7.00 to 10.00
C[C@H]1NC(=O)[C@H](CCCCN)NC(=O)CCSCc2cccc(c2)CSC[C@@H](C(N)=O)NC(=O)[C@]2(C)CCCN2C(=O)[C@H](Cc2ccc(O)cc2)NC(=O)C(C)(C)NC(=O)[C@@H]2CCCN2C(=O)[C@H](Cc2c[nH]c3ccc(F)cc23)NC(=O)[C@H](Cc2c[nH]c3ccc(F)cc23)NC1=O [Compound 005] ([Mpa]K[dA][Trp(5-F)][Trp(5-F)]P[Aib]Y[αMeP]C-NH2; linker 1-10 via mXylylene)	6.00 to 7.00	7.00 to 10.00
C[C@H](O)[C@@H]1NC(=O)[C@@H]2CCCN2C(=O)[C@H](Cc2c[nH]c3ccc(F)cc23)NC(=O)[C@H](Cc2c[nH]c3ccc(F)cc23)NC(=O)CNC(=O)[C@H](CCCCN)NC(=O)CCSCc2cccc(c2)CSC[C@@H](C(N)=O)NC(=O)[C@]2(C)CCCN2C(=O)[C@H](Cc2ccc(O)cc2)NC1=O [Compound 050] ([Mpa]KG[Trp(5-F)][Trp(5-F)]P[aThr]Y[αMeP]C-NH2; linker 1-10 via mXylylene)	4.30 to 4.68	4.30 to 4.68
CC(=O)N[C@H]1CCCc2cn(nn2)CCC[C@@H](C(N)=O)NC(=O)[C@]2(C)CCCN2C(=O)[C@H](Cc2ccc(O)cc2)NC(=O)[C@H](Cc2cnc[nH]2)NC(=O)[C@H](CC(=O)O)NC(=O)[C@H](Cc2c[nH]c3ccc(F)cc23)NC(=O)[C@H](Cc2c[nH]c3ccc(F)cc23)NC(=O)CNC(=O)[C@H](C)NC1=O [Compound 342]	4.92 to 6.00	4.92 to 6.00
NCCCC[C@@H]1NC(=O)CCSCc2cccc(c2)CSC[C@@H](C(N)=O)NC(=O)[C@@H]2CCCN2C(=O)[C@H](Cc2ccc(O)cc2)NC(=O)[C@H](Cc2c[nH]cn2)NC(=O)[C@H](CC(=O)O)NC(=O)[C@H](CCc2ccccc2)NC(=O)[C@H](Cc2c[nH]c3ccc(F)cc23)NC(=O)CNC1=O [Compound 244] ([Mpa]KG[Trp(5-F)][hPhe]DHYPC-NH2; linker 1-10 via mXylylene)	6.00 to 7.00	6.00 to 7.00
C[C@H]1NC(=O)[C@H](Cc2cnc[nH]2)NC(=O)[C@H](CC(=O)O)NC(=O)[C@H](Cc2c[nH]c3ccc(F)cc23)NC(=O)[C@H](Cc2c[nH]c3ccc(F)cc23)NC(=O)CNC(=O)[C@H](CCCCN)NC(=O)CCSCc2cccc(c2)CSC[C@@H](C(N)=O)NC(=O)[C@]2(C)CCCN2C1=O [Compound 319] ([Mpa]KG[Trp(5-F)][Trp(5-F)]DH[dA][αMeP]C-NH2; linker 1-10 via mXylylene)	4.92 to 6.00	6.00 to 7.00
COc1ccc(C[C@@H]2NC(=O)[C@H]([C@@H](C)O)NC(=O)[C@]3(C)CCCN3C(=O)[C@H](Cc3c[nH]c4ccc(F)cc34)NC(=O)[C@H](Cc3c[nH]c4ccc(F)cc34)NC(=O)[C@@H](C)NC(=O)[C@H](CCCCN)NC(=O)CCSCc3cccc(c3)CSCCNC(=O)[C@]3(C)CCCN3C2=O)cc1 [Compound 025] (cyclo(K[dA][Trp(5-F)][Trp(5-F)][αMeP]TY(Me)[αMeP][X4]))	6.00 to 7.00	6.00 to 7.00
CC(C)(O)[C@@H]1NC(=O)[C@@H]2CCCN2C(=O)[C@H](Cc2c[nH]c3ccc(F)cc23)NC(=O)[C@H](Cc2c[nH]c3ccc(F)cc23)NC(=O)CNC(=O)[C@H](CCCCN)NC(=O)CCSCc2cccc(c2)CSC[C@@H](C(N)=O)NC(=O)[C@]2(C)CCCN2C(=O)[C@H](Cc2ccc(O)cc2)NC1=O [Compound 048] ([Mpa]KG[Trp(5-F)][Trp(5-F)]P[Val(3-OH)]Y[αMeP]C-NH2; linker 1-10 via mXylylene)	6.00 to 7.00	6.00 to 7.00
COc1ccc(C[C@@H]2NC(=O)[C@H]([C@@H](C)O)NC(=O)[C@@H]3CSCc4cccc(c4)CSC[C@H](NC(=O)[C@@H](C)NC(=O)[C@H](C)NC(=O)CCCCc4cccc(c4)CCCCNC(=O)[C@@H]4CCCN4C2=O)C(=O)N[C@@H](Cc2c[nH]c4ccc(F)cc24)C(=O)N3)cc1 [Compound 497] (cyclo(A[dA]C[Trp(5-F)]CTY(Me)P[X13]); linker 3-5 via mXylylene)	6.00 to 7.00	6.00 to 7.00
CC(C)[C@@H](O)[C@@H]1NC(=O)[C@@H]2CCCN2C(=O)[C@H](Cc2c[nH]c3ccc(F)cc23)NC(=O)[C@H](Cc2c[nH]c3ccc(F)cc23)NC(=O)CNC(=O)[C@H](CCCCN)NC(=O)CCSCc2cccc(c2)CSC[C@@H](C(N)=O)NC(=O)[C@]2(C)CCCN2C(=O)[C@H](Cc2ccc(O)cc2)NC1=O [Compound 049] ([Mpa]KG[Trp(5-F)][Trp(5-F)]P[Leu(3R-OH)]Y[αMeP]C-NH2; linker 1-10 via mXylylene)	6.00 to 7.00	6.00 to 7.00
CC(=O)N[C@H]1CCCn2cc(nn2)CCC[C@@H](C(N)=O)NC(=O)[C@]2(C)CCCN2C(=O)[C@H](Cc2ccc(O)cc2)NC(=O)[C@H](Cc2cnc[nH]2)NC(=O)[C@H](CC(=O)O)NC(=O)[C@H](Cc2c[nH]c3ccc(F)cc23)NC(=O)[C@H](Cc2c[nH]c3ccc(F)cc23)NC(=O)CNC(=O)[C@H](C)NC1=O [Compound 333]	4.92 to 6.00	4.92 to 6.00
COc1ccc(C[C@@H]2NC(=O)[C@H](CCC(=O)O)NC(=O)[C@@H]3C[C@H](N)CN3C(=O)[C@H](Cc3c[nH]c4ccc(F)cc34)NC(=O)[C@H](Cc3c[nH]c4ccc(F)cc34)NC(=O)[C@@H](C)NC(=O)[C@H](C)NC(=O)CCSCc3ccc(cc3)CSCCNC(=O)[C@]3(C)CCCN3C2=O)cc1 [Compound 382] (cyclo(A[dA][Trp(5-F)][Trp(5-F)][Pro(4S-NH2)]EY(Me)[αMeP][X17]))	7.00 to 9.96	7.00 to 10.00
COc1ccc(C[C@@H]2NC(=O)[C@H](Cc3cnc[nH]3)NC(=O)[C@H](CC(=O)O)NC(=O)[C@H](Cc3c[nH]c4ccc(F)cc34)NC(=O)[C@H](Cc3c[nH]c4ccc(F)cc34)NC(=O)[C@@H](C)NC(=O)CCCC(=O)NCCOc3ccc(cc3)C[C@@H](C(N)=O)NC(=O)[C@]3(C)CCCN3C2=O)cc1 [Compound 400] ([dA][Trp(5-F)][Trp(5-F)]DHY(Me)[αMeP][AEF]-NH2; linker N-8 via Glutaryl)	4.92 to 6.00	6.00 to 7.00
COc1ccc(C[C@@H]2NC(=O)[C@H](C)NC(=O)[C@@H]3CCCCNc4cc(ccn4)C[C@H](NC(=O)[C@@H](C)NC(=O)[C@H](C)NC(=O)CCSCc4cccc(c4)CSC[C@@H](C(N)=O)NC(=O)[C@]4(C)CCCN4C2=O)C(=O)N[C@@H](Cc2c[nH]c4ccc(F)cc24)C(=O)N3)cc1 [Compound 515]	7.00 to 9.96	7.00 to 10.00
COc1ccc(C[C@@H]2NC(=O)[C@H](Cc3cnc[nH]3)NC(=O)[C@H](CC(=O)O)NC(=O)[C@H](Cc3c[nH]c4ccc(F)cc34)NC(=O)[C@H](Cc3c[nH]c4ccc(F)cc34)NC(=O)[C@@H](C)NC(=O)CCCCSc3c(F)c(F)c(c(F)c3F)SCCNC(=O)[C@]3(C)CCCN3C2=O)cc1 [Compound 483] (cyclo(DHY(Me)[αMeP][X24][dA][Trp(5-F)][Trp(5-F)]))	7.00 to 9.96	7.00 to 10.00
CC[C@@]12CCCN1C(=O)[C@H](Cc1ccc(O)cc1)NC(=O)[C@H](Cc1cnc[nH]1)NC(=O)[C@H](CC(=O)O)NC(=O)[C@H](Cc1c[nH]c3ccc(F)cc13)NC(=O)[C@H](Cc1c[nH]c3ccc(F)cc13)NC(=O)CNC(=O)[C@H](CCCCN)NC(=O)CCSCc1cccc(c1)CSC[C@@H](C(N)=O)NC2=O [Compound 378] ([Mpa]KG[Trp(5-F)][Trp(5-F)]DHY[X23]C-NH2; linker 1-10 via mXylylene)	7.00 to 9.96	7.00 to 10.00
CO[C@@H](C)[C@@H]1NC(=O)[C@@H]2CCCN2C(=O)[C@H](Cc2c[nH]c3ccc(F)cc23)NC(=O)[C@H](Cc2c[nH]c3ccc(F)cc23)NC(=O)[C@@H](C)NC(=O)[C@H](CCCCN)NC(=O)CCSCc2cccc(c2)CSC[C@@H](C(N)=O)NC(=O)[C@]2(C)CCCN2C(=O)[C@H](Cc2ccc(O)cc2)NC1=O [Compound 053] ([Mpa]K[dA][Trp(5-F)][Trp(5-F)]P[aThr](Me)Y[αMeP]C-NH2; linker 1-10 via mXylylene)	4.92 to 6.00	4.92 to 6.00
